Results from PMC6544269, “Identification of inhibitors of an unconventional Trypanosoma brucei kinetochore kinase” (PLoS ONE, 2019).

T1: TbKKT19 (Trypanosoma brucei, UniProt Q382T9)
T1 construct: gene Tb11.01.4250; recombinant His-tagged, full-length TbKKT19
T1 sequence (Q382T9 1-484): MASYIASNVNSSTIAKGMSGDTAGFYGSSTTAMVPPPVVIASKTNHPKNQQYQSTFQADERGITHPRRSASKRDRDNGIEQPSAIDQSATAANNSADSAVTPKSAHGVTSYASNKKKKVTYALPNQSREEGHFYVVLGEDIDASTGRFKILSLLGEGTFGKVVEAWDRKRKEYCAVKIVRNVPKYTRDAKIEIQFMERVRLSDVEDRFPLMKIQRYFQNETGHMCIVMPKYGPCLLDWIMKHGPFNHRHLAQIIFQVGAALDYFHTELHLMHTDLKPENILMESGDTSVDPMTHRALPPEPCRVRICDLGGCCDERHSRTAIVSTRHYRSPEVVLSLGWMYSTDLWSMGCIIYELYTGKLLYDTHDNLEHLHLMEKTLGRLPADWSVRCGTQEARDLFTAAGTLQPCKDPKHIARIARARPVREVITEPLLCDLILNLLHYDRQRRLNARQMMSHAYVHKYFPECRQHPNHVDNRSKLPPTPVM

B1: TbKKT19 (Trypanosoma brucei brucei TREU927) (protein)
chain: T1 sequence (Q382T9 1-484)
notes: recombinant His-tagged, full-length TbKKT19

How the values were obtained:
[1] = target: T1, TbKKT19; assay: ADP Hunter Plus kinase assay, 10-point IC50, with technology counterscreen; repurchased and reconfirmed; type: biochemical
[2] = target: T1, TbKKT19; assay: ADP Hunter Plus kinase assay, KKL peptide, […] ATP; potency shift at […] ATP; type: biochemical
[3] = substrate: Nc1ncnc2c1ncn2[C@@H]1O[C@H](COP(=O)(O)OP(=O)(O)OP(=O)(O)O)[C@@H](O)[C@H]1O; assay: purified protein; type: biochemical, Trypanosoma brucei; details: ATP binding site

| Molecule | IC50 [1] [µM] | IC50 [2] [µM] | further results |
| --- | --- | --- | --- |
| O=C(Nc1ccc2cn[nH]c2c1)c1c(Cl)cccc1Cl [compound 2] | 14.9 |  |  |
| COc1cc(O)c2c(c1)[C@H]1O[C@@H]1C[C@H](O)[C@H](O)C(=O)/C=C\C[C@H](C)OC2=O [hypothemycin] |  | 0.065 |  |
| CCN(Cc1ccc(/C=C2/C(=O)Nc3ccccc32)o1)S(C)(=O)=O [compound 1] | 18.9 |  |  |
| CN[C@@H]1C[C@H]2O[C@@](C)([C@@H]1OC)n1c3ccccc3c3c4c(c5c6ccccc6n2c5c31)C(=O)NC4 [staurosporine] |  | 0.288 |  |
| B1 |  |  | Km [3]: 102 µM |
